Source: patent publication US20150218516A1, “COMPOSITIONS AND METHODS FOR ENHANCING IMMUNE RESPONSES MEDIATED BY ANTIGEN-PRESENTING CELLS” (The Board of Regents of the University of Nebraska, priority 2007, published 2015)
Non-standard residues stand in square brackets, D forms with d. Residues, ends and D or L forms follow the SMILES beside them. No end group written: not given here.

Tests used:
MUC1 epitope peptide = assay: Serum antibody response to MUC1 epitope peptide in immunized mice (RIA); type: in vivo, C57B16 and Balb/c mice; settings: 100 μg i.p. with RIBI adjuvant, three immunizations, sera at 6 weeks
From the text: The strains of mice used for this example were inbred females 6 to 12 week old C57B16(H-2^b) and Balb/c (H-2^d), which were obtained from Jackson labs (Bar Harbor, Me.). […] The MUC1 peptide selected for these studies contained a motif that may bind to the H-2K^b molecule of the C57B16 mice; therefore, a strain of mouse that lacked this class I molecule binding motif (Balb/c) was also studied to determine the relative contribution of the class I binding motif to the antigen presentation properties of these peptides.
(§1) Preimmune sera were obtained from mice, which were subsequently immunized intraperitoneally with 100 μg of the indicated peptide with RIBI adjuvant (MPL+TDM+CWS) (Sigma Immunochemicals). Animals were boosted twice at two week intervals using the same injection procedure. Sera were obtained following three immunizations (at 6 weeks).
For radioimmunoassay (RIA), anti-peptide antibodies were determined, before and at different time points after immunization, in 96-well microtiter plates (Dynatech Laboratories, Inc.). Plates were coated with 50 μl of a 100 μg/ml appropriate peptide in phosphate-buffered saline (PBS) pH 7.4 solution overnight at 4° C. The wells were blocked by incubation with 5% dry milk in PBS pH 7.4 for at least two hours. Anti-peptide antibody titers were determined using serial dilutions of sera. The sera were diluted with PBS containing 0.05% Tween-20, pH 7.4 (washing buffer) and 50 μl of each dilution was incubated at 37° C. for 1 hour. The wells were then drained, washed 4 times with PBS-Tween and 50 μl of ^125I-goat anti-mouse Ab (1-2×10^4 cpm/well) was added and incubated for 1 hr at 25° C. After washing, specific radioactivity was recorded in a gamma counter (1272 CliniGamma, LKB).
Experimental groups were as follows: • Group A. mice immunized with peptide (1) • Group B. mice immunized with peptide (2) • Group C. mice immunized with peptide (1) plus peptide (2) • Group D. mice immunized with peptide (3) • Group E. mice immunized with peptide (4).

κR(33-52) peptide = assay: Peptide-specific ELISA of serum and protein A-purified antibody from immunized rabbits; type: in vivo
Procedure: Rabbits were immunized s.c. with 500 μg of […]aR (SEQ ID NO: 10) construct in complete Freund's adjuvant (GIBCO, Grand Island, N.Y.) on day 0 followed by booster injections on days 30 and 60 in incomplete Freund's adjuvant. Serum was collected starting 75 days after the initial immunization.
The presence of anti-peptide antibody was determined by using a peptide specific ELISA utilizing the free κR(33-52) peptide as previously described (Morgan et al. (1993) J. Immunol., 151: 377). Anti-κR(33-52) and normal rabbit γ-globulin (RGG) were purified by protein A Sepharose chromatography (Sigma) (Morgan et al. (1993) J. Immunol., 151: 377) prior to use.

MUC1 peptide = assay: MUC1 specific antibody isotype titers in immunized mice (ELISA); type: in vivo, C57BL6 mice
Procedure: as §1
Anti-peptide antibody isotype titers were determined by enzyme-linked immunosorbent assay (ELISA) carried out in 96-well microtiter plates. The plates were coated with 100 μg/ml of appropriate peptide in PBS, pH 7.4, and incubated overnight. The wells were blocked with 5% dry milk in PBS pH 7.4 for at least two hours. Anti-peptide titers were determined using serial dilutions of sera as described above. After the plates were washed 4 times, 50 μl of a 1:100 dilution of rabbit anti-mouse IgA, IgG1, IgG2a, IgG2b, IgG3 and IgM (Zymed) was added to each well and incubated at 25° C. for 1 hour. The plates were washed 4 times with washing buffer and 50 μl of 1:500 goat anti-rabbit conjugated to […] (Zymed) was incubated at 37° C. for 1 hour. Again, the plates were washed 4 times with washing buffer and bound enzyme was detected by the addition of 50 μl 1 mg/ml p-nitrophenyl phosphate (Sigma) in 10% diethanolamine (Sigma) pH 9.4. The reaction was stopped by the addition of 50 μl of 0.5 M sodium hydroxide and absorbance values (A405) were determined on Titertek Multiskan (Flow Laboratories, Irvine, Scotland).
The following experiment was performed in order to compare the potency of the molecular adjuvant of the present invention with a widely used method for enhancing the immune response to peptide epitopes. The objective was a direct comparison of the response to a construct of MUC1 epitope-C5a agonist and the same epitope conjugated to keyhole limpet hemocyanine (KLH) in mice.

C5aRs on Human PMNs = molecular target: T1, C5aRs on Human PMNs (Homo sapiens, UniProt P21730); assay: Competition assay with 125I-C5a for C5aR binding on intact human PMNs
T1 construct: endogenous in cells; host or cells: intact human PMNs (polymorphonuclear leukocytes)
T1 sequence (P21730 1-350): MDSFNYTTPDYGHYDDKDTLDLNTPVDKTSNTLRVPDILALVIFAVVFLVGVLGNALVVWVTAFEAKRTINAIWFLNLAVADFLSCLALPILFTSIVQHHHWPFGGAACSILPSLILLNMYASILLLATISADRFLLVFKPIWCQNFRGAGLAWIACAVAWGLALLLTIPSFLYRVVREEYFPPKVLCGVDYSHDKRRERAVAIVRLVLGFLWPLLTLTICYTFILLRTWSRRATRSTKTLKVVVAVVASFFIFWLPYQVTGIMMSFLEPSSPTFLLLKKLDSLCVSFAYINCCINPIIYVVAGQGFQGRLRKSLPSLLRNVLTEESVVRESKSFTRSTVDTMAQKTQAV
Procedure: C5a-like agonistic activity was assessed by the ability of the peptides to induce smooth muscle contraction of human umbilical artery and MPO release from human PMNs according to previously published methods (Sanderson et al., 1994, supra; Sanderson et al., J. Med. Chem. 38, 3669, 1995; Finch et al., J. Med. Chem. 40, 877, 1997). Full concentration-response curves were generated for individual peptides and natural C5a in each assay and the EC50 values (the concentration of peptide producing 50% of the maximal response to each peptide) were calculated. pD2 transforms [−log EC50 (M)] were calculated for each concentration-response curve and reported as the mean±SE. Peptide binding affinity to the C5aR was evaluated on intact human PMNs by a competition assay using ^125I-C5a according to previously described methods (Sanderson et al., 1995, supra; Finch et al., 1997, supra). Statistical analysis of the values obtained from pharmacologic assays was performed using one-way analysis of variance (ANOVA).

human PMNs = assay: MPO release from human PMNs; type: cell-based; settings: for pD2 ± SE: −log EC50 (M), mean ± SE, n=3
Procedure: (§2) Statistical analysis of the values obtained from pharmacologic assays was performed using one-way analysis of variance (ANOVA).

human umbilical artery = assay: Smooth muscle contraction of human umbilical artery; type: cell-based; settings: for EC50: concentration resulting in 50% maximum contraction; for pD2 ± SE: −log EC50 (M), mean ± SE, n=3
Procedure: as §2

SKRC-1 = settings: low G250 expression; cord blood T lymphocytes
Procedure: (§3) An exemplary in vitro cytotoxicity assay comprises the following steps. Antigen presenting cells, such as dendritic cells, were obtained from bone marrow or blood. Dendritic cells were preferentially differentiated in culture through the addition of IL-4, GM-CSF, and TNFα for 7-10 days. Dendritic cells were then pulsed with peptides for 18 hours. MNCs were also isolated from spleens or blood (e.g., cord or peripheral) and cultured in IL-2 and GM-CSF for 7-10 days for enhanced lymphocyte proliferation. The pulsed dendritic cells were then co-cultured with the lymphocyte-enriched MNCs at a 1:10 ratio for 4 days. Lymphocyte-enriched MNC effector cells were then co-cultured with tumor target cells labeled with the bioactive fluorescent dye Calcein AM for 4 hours. Lysed cells were detected by photometrically measuring the released fluorescent dye.
(§4) Certain renal cell carcinomas express the tumor antigen G250. […] The fusion peptide was administered to APCs which were subsequently presented for 4 days to a lymphocyte-enriched population from cord blood as described hereinabove in Example 6.

SKRC-52 = settings: cord blood T lymphocytes, dendritic cells exposed to the peptide
Procedure: as §3, §4

[1] = mean titer of responders, sera screened against MUC1 peptide, five mice

YSFKPMPLaRKQGGFLGL (YSFKPMPL[dA]RKQGGFLGL)
antibody response (in words) (MUC1 epitope peptide): immune responses were not produced

FPGWAEPDSNGSAGSEDAQLYSFKPMPLaR
antibody concentration at which binding to free κR(33-52) was detectable (κR(33-52) peptide; protein A-purified antibody from immunized rabbits): less than 0.1 ng/ml | ED50 titer (κR(33-52) peptide; protein A-purified antibody, multiple bleedings): 1 to 10 ng/mL | serum titer against free κR(33-52) peptide (κR(33-52) peptide; rabbits, 500 μg s.c. in Freund's adjuvant): approximately 10^5

YKQGGFLGLYSFKPMPLaR
isotypes of the anti-peptide antibodies produced (MUC1 peptide; FIG. 3): IgM, IgG2a, and IgG2b | specificity of antibody response for the MUC1 epitope (MUC1 peptide; FIG. 4): high percentage of antibodies that are specific for the MUC1 epitope | Ab titer IgA (MUC1 peptide; [1]): 0 | Ab titer IgG1 (MUC1 peptide; [1]): 0 | Ab titer IgG2a (MUC1 peptide; [1]): 1260 | Ab titer IgG2b (MUC1 peptide; [1]): 1780 | Ab titer IgG3 (MUC1 peptide; [1]): 0 | Ab titer IgM (MUC1 peptide; [1]): 6310 | number of responders IgG2a (MUC1 peptide; responders / mice immunized): (5/5) | number of responders IgG2b (MUC1 peptide; responders / mice immunized): (5/5) | number of responders IgM (MUC1 peptide; responders / mice immunized): (5/5) | antibody response (in words) (MUC1 epitope peptide; listed as MUC1 epitope/C5a agonist peptide conjugate): appreciable antibody response | antibody response (in words) (MUC1 epitope peptide; listed as peptide 3): substantial responses

CC[C@H](C)[C@H](N)C(=O)N1CCC[C@H]1C(=O)N[C@@H](CCC(N)=O)C(=O)N[C@@H](CO)C(=O)N[C@@H](CC(C)C)C(=O)N[C@@H](CC(=O)O)C(=O)N[C@@H](CO)C(=O)N[C@@H](Cc1c[nH]c2ccccc12)C(=O)N[C@@H](Cc1c[nH]c2ccccc12)C(=O)N[C@H](C(=O)N[C@@H](CO)C(=O)N[C@@H](CC(C)C)C(=O)N[C@@H](CCCNC(=N)N)C(=O)N[C@@H](CCCNC(=N)N)C(=O)N[C@@H](Cc1ccc(O)cc1)C(=O)N[C@@H](CO)C(=O)N[C@@H](Cc1ccccc1)C(=O)N[C@@H](CCCCN)C(=O)N1CCC[C@H]1C(=O)N[C@@H](CCSC)C(=O)N1CCC[C@H]1C(=O)N[C@@H](CC(C)C)C(=O)N[C@H](C)C(=O)N[C@@H](CCCNC(=N)N)C(=O)NCC(=O)O)[C@@H](C)O (H-IPQSLDSWWTSLRRYSFKPMPL[dA]RG-OH)
binding to the C5aR (in words) (C5aRs on Human PMNs): significantly less affinity | MPO release from PMNs (in words) (human PMNs): unable to induce a full response | EC50 (human PMNs; 50% maximum release of myeloperoxidase): 2.56 µM | pD2 ± SE (human PMNs): 5.59 ± 0.28 | potency in umbilical artery contraction (in words) (human umbilical artery): significantly less potent | EC50 (human umbilical artery): 6.78 µM | pD2 ± SE (human umbilical artery): 5.17 ± 0.13

CSCC[C@H](NC(=O)[C@@H]1CCCN1C(=O)[C@H](CCCCN)NC(=O)[C@H](Cc1ccccc1)NC(=O)[C@H](CO)NC(=O)[C@H](Cc1ccc(O)cc1)NC(=O)[C@@H](NC(=O)[C@H](CCCNC(=N)N)NC(=O)[C@H](C)NC(=O)[C@H](Cc1ccccc1)NC(=O)[C@H](C)NC(=O)[C@@H](NC(=O)[C@H](CO)NC(=O)[C@H](CC(C)C)NC(=O)[C@@H](N)Cc1c[nH]cn1)[C@@H](C)O)C(C)C)C(=O)N1CCC[C@H]1C(=O)N[C@@H](CC(C)C)C(=O)N[C@H](C)C(=O)N[C@@H](CCCNC(=N)N)C(=O)O (H-HLSTAFARVYSFKPMPL[dA]R-OH)
cytotoxicity against SKRC-1 (in words) (SKRC-1): exhibited cytotoxicity | cytotoxicity against SKRC-52 (in words) (SKRC-52): significant cytotoxicity

YKQGGFLGL [reference compound]
antibody response (in words) (MUC1 epitope peptide): no appreciable increase in antibody response

CC[C@H](C)[C@H](NC(=O)[C@H](CCCNC(=N)N)NC(=O)[C@H](CCCNC(=N)N)NC(=O)[C@H](CCCNC(=N)N)NC(=O)[C@@H](C)NC(=O)[C@H](CC(C)C)NC(=O)[C@@H]1CCCN1C(=O)[C@H](CCSC)NC(=O)[C@@H]1CCCN1C(=O)[C@H](CCCCN)NC(=O)[C@H](Cc1ccccc1)NC(=O)[C@H](CO)NC(=O)[C@@H](N)Cc1ccc(O)cc1)C(=O)N1CCC[C@H]1C(=O)N[C@@H](CCC(N)=O)C(=O)N[C@@H](CO)C(=O)N[C@@H](CC(C)C)C(=O)N[C@@H](CC(=O)O)C(=O)N[C@@H](CO)C(=O)N[C@@H](Cc1c[nH]c2ccccc12)C(=O)N[C@@H](Cc1c[nH]c2ccccc12)C(=O)N[C@H](C(=O)N[C@@H](CO)C(=O)N[C@@H](CC(C)C)C(=O)O)[C@@H](C)O
binding to the C5aR (in words) (C5aRs on Human PMNs): bound poorly | MPO release from PMNs (in words) (human PMNs): inactive | pD2 ± SE (human PMNs): >3 | potency in umbilical artery contraction (in words) (human umbilical artery): significantly less potent | EC50 (human umbilical artery): 39.4 µM | pD2 ± SE (human umbilical artery): 4.41 ± 0.06

CSCC[C@H](NC(=O)[C@@H]1CCCN1C(=O)[C@H](CCCCN)NC(=O)[C@H](Cc1ccccc1)NC(=O)[C@H](CO)NC(=O)[C@H](Cc1ccc(O)cc1)NC(=O)[C@H](CCCNC(=N)N)NC(=O)[C@H](CCCNC(=N)N)NC(=O)[C@@H](NC(=O)[C@H](CCCNC(=N)N)NC(=O)[C@H](C)NC(=O)[C@H](Cc1ccccc1)NC(=O)[C@H](C)NC(=O)[C@@H](NC(=O)[C@H](CO)NC(=O)[C@H](CC(C)C)NC(=O)[C@@H](N)Cc1c[nH]cn1)[C@@H](C)O)C(C)C)C(=O)N1CCC[C@H]1C(=O)N[C@@H](CC(C)C)C(=O)N[C@H](C)C(=O)N[C@@H](CCCNC(=N)N)C(=O)O (H-HLSTAFARVRRYSFKPMPL[dA]R-OH)
cytotoxicity against SKRC-1 (in words) (SKRC-1): exhibited cytotoxicity | cytotoxicity against SKRC-52 (in words) (SKRC-52): significant cytotoxicity
